Reference: patent publication US4758572A, “Antiviral combinations” (Burroughs Wellcome Co., priority 1983, dated 1988)
Read-outs that look alike come from different tables or passages of the source.

Test system: HSV type1 H29 Strain
Assay: Yield reduction assay with HSV type 1 H29 strain
Assay type: cell-based, herpes simplex virus type 1
Settings: read-out: ED50 (the source's name)
Text: (1) Examples of Mutual Enhancement of the Antiherpetic Activities of 2-Acetylpyridine-4-(2-morpholinoethyl)thiosemicarbazone (compound A) and Acyclovir (ACV).
^a Yield reduction assay with HSV type1 H29 Strain

EC50 (Addition: none) [nM] | EC50 (Compound A with addition of 0.2 μM ACV) [nM] | EC50 (ACV with addition of 1 μM Compound A) [nM] | Compound
5000 | 700 | – | CC(=NNC(=S)NCCN1CCOCC1)c1ccccn1 [Compound A, 2-Acetylpyridine-4-(2-morpholinoethyl)thiosemicarbazone]
600 | – | 20 | Nc1nc2c(ncn2COCCO)c(=O)[nH]1 [ACV, 9-(2-hydroxyethoxymethyl)guanine]
